Data: US9260760B2, “Method for determining complete response to anticancer therapy” (Board of Regents, The University of Texas System, priority 2012, dated 2016)
Several values for one entry are separate records, joined by “and”; a condition that tells them apart may be missing. Identical values can stand only once.

Key:
Assay type in all cases: in vivo, human
[1] = tested on: unresectable metastatic colorectal cancer; assay: Study 3: maintenance XCEL after CR; RFS, PFS, OS
Text: The institutional review board approved this study. […] All patients had clinical examinations, laboratory and CT scan every 2-3 months.
The principal investigator and two board-certified radiologists reviewed all the CT scan images. CR was defined according to the RECIST criteria as complete disappearance of measurable or none-measurable disease. Effective CR (eCR) was coined to describe normalization of an anatomical structure (e.g. nodes) that cannot regress completely. Confirmed CR included those patients who had CR by meeting the RECIST criteria or had achieved eCR or pathological CR. Near CR (nCR) were defined as almost complete disappearance (95-99%) of measurable disease on CT scan. Relapse free survival (RFS) was defined as the time from first radiologic CR to first recurrence, progression, or death. […] […] Treatment related toxicity was graded in accordance with the National Cancer Institute Common Toxicity Criteria for Adverse Events, version 3.0.
Continuous variables were summarized using the median (range) and categorical variables were summarized in frequency tables. Patients were censored at the date of last follow-up if their disease had not progressed or if they had not died. The death date was ascertained by searching (ssdi.genealogy.rootsweb.com) using social security numbers or phone follow-up. Therefore, it was possible for censored OS times to be greater than censored RFS and PFS times. Kaplan-Meier estimates for RFS, PFS, and OS were calculated, and group comparisons made using log-rank tests.

[2] = Study 2: treatment-related toxicity of XCEL (CTCAE version 3.0)
Procedure: This retrospective study was approved by the institutional review board of The University of Texas M. D. Anderson Cancer Center. All sixty-six patients received concurrent capecitabine (Xeloda, Roche Nutley, N.J.) at mean daily dose 1000 mg/m^2/d bid for 14 days every 21 days or Monday-through Friday with radiation with daily celecoxib (CELEBREX®, Pfizer, N.Y.) at 200 mg PO b.i.d. from October 2000 to December 2003.
All patients were subjected to routine clinical examinations, laboratory analyses, and computed tomography before receiving XCEL described previously. All patient data were to be independently audited and radiographic images depicting CR were reviewed and agreed upon by two independent radiologists. All 19 patients had pathological confirmation of metastatic cancer ( ). Treatment-related toxicity was graded using the National Institutes of Health's Common Terminology Criteria for Adverse Events, version 3.0. Tumor responses were evaluated using RECIST criteria with complete response defined as complete radiographic disappearance of measurable or evaluable disease and normalization of tumor marker. The death date was ascertained by searching (ssdi.genealogy.rootsweb.com) using social security numbers. The cutoff point for collection of survival was October 2005.

[3] = Study 1: treatment-related toxicity of XCEL (CTC version 2.0)
Text: The radiation was delivered to the target area using 18 MV photons with 3-D conformal planning technique. The dose of radiation was either 35-40 Gy (n=18) or >45 Gy (n=15) with dose radiation missing in one patient. […] Celecoxib was continued with capecitabine to prevent HFS and to improve survival.
All patients were subjected to routine clinical examinations, laboratory analyses, and computed tomography. Patients were seen weekly during radiotherapy if treated on site or every 6-9 weeks with physical examinations, laboratory tests, and computed tomography. Treatment-related toxicity was graded using the National Institutes of Health's Common Toxicities Criteria (CTC) version 2.0. Tumor responses were evaluated using RECIST criteria. […] Overall response rate was defined as the sum of the complete and partial response rates and the tumor control rate was defined as the sum of overall response rates with stable disease rates. The date of death was ascertained through the cancer registry or through a search of patients' social security numbers in the Social Security Death Index (ssdi.genealogy.rootsweb.com).

[4] = Disease-free interval prior to metastasis <6 mo
[5] = Disease-free interval prior to metastasis ≧6 mo
[6] = Response to first-line therapy no
[7] = Response to first-line therapy yes

For `Cc1ccc(-c2cc(C(F)(F)F)nn2-c2ccc(S(N)(=O)=O)cc2)cc1` [XCEL], the “pathological CR rate (observed)” value ([1]; 1/19) was 5%, the “two-year RFS” value ([1]; 14 unresected and R1-2 resected patients) was 71% and the “2-year RFS (95% CI)” value ([1]; All patients) was 0.57 (0.39, 0.85). The “3-year OS (95% CI)” value ([1]; All patients) was 0.79 (0.59, 1.00), the “2-year RFS (95% CI)” value [1, 4] was 0.64 (0 44, 1.00) and the “3-year OS (95% CI)” value [1, 4] was 0.75 (0.54, 1.00). The “2-year RFS (95% CI)” value [1, 5] was 0.50 (0.28, 0.88), the “3-year OS (95% CI)” value [1, 5] was 0.74 (0.39, 1.00) and the “2-year RFS (95% CI)” value ([1]; Extrahepatic no) was 0.52 (0.15, 1.00). For the same compound, the “3-year OS (95% CI)” value ([1]; Extrahepatic no) was 0.79 (0.66, 1.00), the “2-year RFS (95% CI)” value ([1]; Extrahepatic yes) was 0.50 (.20, 1.00) and the “3-year OS (95% CI)” value ([1]; Extrahepatic yes) was 0.67 (0.55, 1.00). The “2-year RFS (95% CI)” value ([1]; LDH Abnormal) was 0.33 (0.07, 1.00), the “3-year OS (95% CI)” value ([1]; LDH Abnormal) was 0.50 (0.13, 1.00) and the “2-year RFS (95% CI)” value ([1]; LDH Normal) was 0.62 (0.42, 0.91). The “3-year OS (95% CI)” value ([1]; LDH Normal) was 0.85 (0.68, 1.00), the “2-year RFS (95% CI)” value ([1]; Maintenance XCEL no) was 0.00 and the “3-year OS (95% CI)” value ([1]; Maintenance XCEL no) was 0.38 (0.08, 1.00). For the same compound, the “2-year RFS (95% CI)” value ([1]; Metastatic Number non-solitary) was 0.60 (0.36, 1.00), the “3-year OS (95% CI)” value ([1]; Metastatic Number non-solitary) was 0.60 (0 29, 1.00) and the “2-year RFS (95% CI)” value ([1]; Metastatic Number solitary) was 0.56 (0.31, 1.00). The “3-year OS (95% CI)” value ([1]; Metastatic Number solitary) was 0.89 (0.71, 1.00), the “2-year RFS (95% CI)” value ([1]; Metastectomy R0) was 0.20 (0.03, 1.00) and the “3-year OS (95% CI)” value ([1]; Metastectomy R0) was 0.60 (0.29, 1.00). For the same compound, the “2-year RFS (95% CI)” value ([1]; Metastectomy none/R1-2) was 0.71 (0.51, 0.99), the “3-year OS (95% CI)” value ([1]; Metastectomy none/R1-2) was 0.60 (0.80, 1.00) and the “3-year PFS” value ([1]; R0-2 resected patients) was 37%. For the same compound, the “two-year RFS” value ([1]; R0 resected patients excluding the one pathological CR patient) was 0%, the “2-year RFS (95% CI)” value ([1]; Radiation no) was 0.69 (1.40, 1.00) and the “3-year OS (95% CI)” value ([1]; Radiation no) was 0.75 (0.43, 1.00). The “2-year RFS (95% CI)” value ([1]; Radiation yes) was 0.50 (0.28, 0.88), the “3-year OS (95% CI)” value ([1]; Radiation yes) was 0.79 (0.56, 1.00) and the “2-year RFS (95% CI)” value [1, 6] was 0.40 (0.25, 1.00). The “3-year OS (95% CI)” value [1, 6] was 0.65 (0.49, 1.00), the “2-year RFS (95% CI)” value [1, 7] was 0.58 (0.39, 1.00) and the “3-year OS (95% CI)” value [1, 7] was 1.00. For the same compound, the “2-year RFS (95% CI)” value ([1]; Stage at Diagnosis II/III) was 0.40 (0.19, 0.85), the “3-year OS (95% CI)” value ([1]; Stage at Diagnosis II/III) was 0.77 (0.53, 1.00) and the “2-year RFS (95% CI)” value ([1]; Stage at Diagnosis IV) was 0.78 (0.55, 1.00). The “3-year OS (95% CI)” value ([1]; Stage at Diagnosis IV) was 0.83 (0.58, 1.00), the “2-year RFS (95% CI)” value ([1]; Tumor size <8 cm) was 0.62 (0.39, 1.00) and the “3-year OS (95% CI)” value ([1]; Tumor size <8 cm) was 1.00. The “2-year RFS (95% CI)” value ([1]; Tumor size ≧8 cm) was 0.40 (0.14, 1.00), the “3-year OS (95% CI)” value ([1]; Tumor size ≧8 cm) was 0.60 (0.29, 1.00) and the “Two-year RFS” value ([1]; all 19 patients) was 57%. The “median RFS” value ([1]; all 19 patients) was “not reached”, the “CEA or CA19.9 during CR” value ([1]; all patients with elevated serum CEA or CA19.9) was “normalized” and the “3-year PFS” value ([1]; confirmed CR patients) was 100%. For the same compound, the CR ([1]; eight of nine first-line irinotecan responders, XCEL alone or with radiation) was 88%, the “two-year RFS” value ([1]; five R0 resected patients) was 20% and the “estimated 3-year survival rate” value ([1]; from CR) was 79%. For the same compound, the “four year OS” value ([1]; from CR, maintenance XCEL) was 93%, the “median OS” value ([1]; from XCEL) was 51.9 months and the “estimated 3-year survival rate” value ([1]; from diagnosis) was 95%. The “median OS” value ([1]; from onset of metastasis) was 73.3 months, the “median time from CR to relapse” value ([1]; in vivo) was 13.1 months and the “relapse while on XCEL” value ([1]; maintenance XCEL) was “no patient relapsed while on XCEL”. For the same compound, the “Two-year RFS estimate” value ([1]; maintenance XCEL group) was 73%, the “3-year PFS” value ([1]; unconfirmed CR patients) was 0% and the “3 year RFS” value ([1]; whole cohorts) was 57%. The “Two-year RFS estimate” value ([1]; without maintenance XCEL) was 0%, the “mean peak MCV increase before and after XCEL” value ([2]; compliant patients) was 10 and the Hematologic toxicities ([2]; in vivo) was “limited to grade 1 neutropenia and thrombocytopenia”. The “grade ½ HFS” value ([2]; in vivo) was 28%, the “grade ½ diarrhea” value ([2]; in vivo) was 44% and the “grade ¾ lymphopenia” value ([2]; in vivo) was 28%. For the same compound, the “Median increase in mean corpuscular volume (MCV) before and after XCEL” value ([2]; range 5-20) was 10, the “Mild serum creatinine elevations” value ([3]; 3 patients after 14 to 32 months of XCEL, reversible upon discontinuation of celecoxib) was 1.6 to 2.0 mg/dL and the “grade ⅔ HFS” value ([3]; expanded study with longer follow up) was 17%. The “gastrointestinal bleeding, other cardiovascular events, deaths” value ([3]; in vivo) was “No gastrointestinal bleeding, other cardiovascular events, or deaths were noted”, the “median time to HFS peak” value ([3]; n=12) was 6.0 months and 6 months and the “median time to HFS onset” value ([3]; n=17) was 3.8 months. For the same compound, the “Incidence of grade 1 HFS” value ([3]; n=65) was 14%, the “Incidence of grade 2 HFS” value ([3]; n=65) was 15% and the “Incidence of grade 3 HFS” value ([3]; n=65) was 2%. The “grade ¾ lymphopenia” value ([3]; n=65) was 24% and the “lymphopenia of all grades” value ([3]; n=65) was 56%.
